Measured values taken from US8017612B2, “Piperazine compound and use thereof as a HCV polymerase inhibitor” (priority 2006, dated 2011).

Key:
[1] = target: T1, HCV polymerase (NS5B) type 1b (Hepatitis C virus genotype 1b, UniProt P26663); assay: Assay of enzyme (HCV polymerase) inhibitory activity, type 1b enzyme; format: biochemical, HCV BK strain (type 1b); conditions: HCV polymerase inhibitory activity IC50, 1b, type 1b enzyme
T1 construct: a region encoding NS5B (J Virol 1991 March, 65(3), 1105-13, 544 amino acids after deletion of 47 amino acids on the C-terminal); 6xHis (C); made in house; host or cells: Escherichia coli
Outline: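 IC50 derived from [3H]UTP incorporation into TCA-insoluble RNA, compared with and without test compound. Reaction (25 °C, 60 min, Tris pH 7.5, 5 mM MgCl2): E. coli-expressed 1b NS5B Δ47 with His tag at 0.5 μg/ml, 5 μg/ml run-off substrate RNA, ATP/GTP/CTP 50 μM, UTP 2 μM.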

[2] = target: T2, HCV polymerase (NS5B) type 1a (Hepatitis C virus genotype 1a, UniProt P26664); assay: Assay of enzyme (HCV polymerase) inhibitory activity, type 1a enzyme; format: biochemical, HCV type 1a (cloned from the blood of patients); conditions: HCV polymerase inhibitory activity IC50, 1a, type 1a enzyme
T2 construct: made in house; host or cells: Escherichia coli (by the 'similar method' of the 1b enzyme)
Outline: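 Reactions ran 60 min at 25° C in 20 mM Tris-HCl pH 7.5, 5 mM MgCl2, 50 mM NaCl, holding genotype 1a NS5B (1.5 μg/ml, Δ47 C-terminus, 6His), substrate RNA 5 μg/ml, UTP 2 μM with tritiated UTP and other NTPs 50 μM. IC50 derived from incorporated radiolabel in filter-trapped RNA relative to uninhibited reaction.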

## NC(=O)c1n[nH]c(=O)c2sc(N3CCN(S(=O)(=O)c4ccc(OC(F)(F)F)cc4)[C@@H](C(=O)NCc4ccc(OC(F)(F)F)cc4)C3)nc12 [Example 876, 7-oxo-2-[(R)-4-(4-trifluoromethoxy-benzenesulfonyl)-3-(4-trifluoromethoxy-benzylcarbamoyl)-piperazin-1-yl]-6,7-dihydro-thiazolo[4,5-d]pyridazine-4-carboxylic acid amide]
[1]
  IC50: < 100 nM
[2]
  IC50: < 100 nM

## O=C(NCc1ccc(OC(F)(F)F)cc1)[C@H]1CN(c2nc3cn[nH]c(=O)c3s2)CCN1S(=O)(=O)c1ccc(C(F)(F)F)cc1 [Example 877, (R)-4-(7-oxo-6,7-dihydro-thiazolo[4,5-d]pyridazin-2-yl)-1-(4-trifluoromethyl-benzenesulfonyl)-piperazine-2-carboxylic acid 4-trifluoromethoxy-benzylamide]
[1]
  IC50: < 100 nM
[2]
  IC50: < 100 nM

## O=C(NCc1ccc(OC(F)(F)F)cc1)[C@H]1CN(c2nc3nc(O)ncc3s2)CCN1S(=O)(=O)c1ccc(OC(F)(F)F)cc1 [Example 878, (R)-4-(5-hydroxy-thiazolo[4,5-d]pyrimidin-2-yl)-1-(4-trifluoromethoxy-benzenesulfonyl)-piperazine-2-carboxylic acid 4-trifluoromethoxy-benzylamide]
[1]
  IC50: < 100 nM
[2]
  IC50: < 100 nM

## O=C(NCc1ccc(OC(F)(F)F)cc1)[C@H]1CN(c2nc3cnncc3s2)CCN1S(=O)(=O)c1ccc(OC(F)(F)F)cc1 [Example 879, (R)-4-thiazolo[4,5-d]pyridazin-2-yl-1-(4-trifluoromethoxy-benzenesulfonyl)-piperazine-2-carboxylic acid 4-trifluoromethoxy-benzylamide]
[1]
  IC50: < 100 nM
[2]
  IC50: < 100 nM

## CCCc1ccc(CNC(=O)[C@H]2CN(c3nc4c(C(=O)OCC)nnc(Cl)c4s3)CCN2S(=O)(=O)c2ccc(CC)cc2)cc1 [Example 880, 7-chloro-2-[(R)-4-(4-ethyl-benzenesulfonyl)-3-(4-propyl-benzylcarbamoyl)-piperazin-1-yl]-thiazolo[4,5-d]pyridazine-4-carboxylic acid ethyl ester]
[1]
  IC50: < 100 nM
[2]
  IC50: < 100 nM

## O=C(NCc1ccc(OC(F)(F)F)cc1)[C@H]1CN(c2nc3cn[nH]c(=O)c3s2)CCN1S(=O)(=O)c1ccc(Br)cc1 [Example 881, (R)-1-(4-bromo-benzenesulfonyl)-4-(7-oxo-6,7-dihydro-thiazolo[4,5-d]pyridazin-2-yl)-piperazine-2-carboxylic acid 4-trifluoromethoxy-benzylamide]
[1]
  IC50: < 100 nM
[2]
  IC50: < 100 nM

## COCC1(c2ccc(CNC(=O)[C@H]3CN(c4nc5cn[nH]c(=O)c5s4)CCN3S(=O)(=O)c3ccc(OC(F)(F)F)cc3)cc2)CC1 [Example 882, (R)-4-(7-oxo-6,7-dihydro-thiazolo[4,5-d]pyridazin-2-yl)-1-(4-trifluoromethoxy-benzenesulfonyl)-piperazine-2-carboxylic acid 4-(1-methoxymethyl-cyclopropyl)-benzylamide]
[1]
  IC50: < 100 nM
[2]
  IC50: 100 to 1000 nM

## CCN(C)c1ccc(CNC(=O)[C@H]2CN(c3nc4cn[nH]c(=O)c4s3)CCN2S(=O)(=O)c2ccc(OC(F)(F)F)cc2)cc1 [Example 883, (R)-4-(7-oxo-6,7-dihydro-thiazolo[4,5-d]pyridazin-2-yl)-1-(4-trifluoromethoxy-benzenesulfonyl)-piperazine-2-carboxylic acid 4-(ethyl-methyl-amino)-benzylamide]
[1]
  IC50: < 100 nM
[2]
  IC50: < 100 nM

## COc1ccc(S(=O)(=O)N2CCN(c3nc4cn[nH]c(=O)c4s3)C[C@@H]2C(=O)NCc2ccc(OC(F)(F)F)cc2)cc1 [Example 884, (R)-1-(4-methoxy-benzenesulfonyl)-4-(7-oxo-6,7-dihydro-thiazolo[4,5-d]pyridazin-2-yl)-piperazine-2-carboxylic acid 4-trifluoromethoxy-benzylamide]
[1]
  IC50: < 100 nM
[2]
  IC50: < 100 nM

## O=C(NCc1ccc(OC(F)(F)F)cc1)[C@H]1CN(c2nc3cncnc3s2)CCN1S(=O)(=O)c1ccc(OC(F)(F)F)cc1 [Example 885, (R)-4-thiazolo[5,4-d]pyrimidin-2-yl-1-(4-trifluoromethoxy-benzenesulfonyl)-piperazine-2-carboxylic acid 4-trifluoromethoxy-benzylamide]
[1]
  IC50: < 100 nM
[2]
  IC50: < 100 nM

## O=C(NCc1ccc(OC(F)(F)F)cc1)[C@H]1CN(c2nc3ncncc3s2)CCN1S(=O)(=O)c1ccc(C(F)(F)F)cc1 [Example 886, (R)-4-thiazolo[4,5-d]pyrimidin-2-yl-1-(4-trifluoromethyl-benzenesulfonyl)-piperazine-2-carboxylic acid 4-trifluoromethoxy-benzylamide]
[1]
  IC50: < 100 nM
[2]
  IC50: < 100 nM

## O=C(NCc1ccc(OC(F)(F)F)cc1)[C@H]1CN(c2nc3nc(Cl)ncc3s2)CCN1S(=O)(=O)c1ccc(C(F)(F)F)cc1 [Example 887, (R)-4-(5-chloro-thiazolo[4,5-d]pyrimidin-2-yl)-1-(4-trifluoromethyl-benzenesulfonyl)-piperazine-2-carboxylic acid 4-trifluoromethoxy-benzylamide]
[1]
  IC50: < 100 nM
[2]
  IC50: < 100 nM

## O=C(NCc1ccc(OC(F)(F)F)cc1)[C@H]1CN(c2nc3nc(O)nc(O)c3s2)CCN1S(=O)(=O)c1ccc(OC(F)(F)F)cc1 [Example 888, (R)-4-(5,7-dihydroxy-thiazolo[4,5-d]pyrimidin-2-yl)-1-(4-trifluoromethoxy-benzenesulfonyl)-piperazine-2-carboxylic acid 4-trifluoromethoxy-benzylamide]
[1]
  IC50: < 100 nM
[2]
  IC50: < 100 nM

## CCCc1ccc(CNC(=O)[C@H]2CN(c3ccc(C(=O)O)c(F)c3)CCN2S(=O)(=O)c2ccc(CC)cc2)cc1 [Example 889, 4-[(R)-4-(4-ethyl-benzenesulfonyl)-3-(4-propyl-benzylcarbamoyl)-piperazin-1-yl]-2-fluoro-benzoic acid]
[1]
  IC50: > 1000 nM
[2]
  IC50: > 1000 nM

## CCC(C)(C)c1ccc(CNC(=O)[C@H]2CN(c3nc(Cl)c(C(=O)O)s3)CCN2S(=O)(=O)c2ccc(OC(F)(F)F)cc2)cc1 [Example 890, 4-chloro-2-[(R)-3-[4-(1,1-dimethyl-propyl)-benzylcarbamoyl]-4-(4-trifluoromethoxy-benzenesulfonyl)-piperazin-1-yl]-thiazole-5-carboxylic acid]
[1]
  IC50: < 100 nM
[2]
  IC50: < 100 nM

## CCCc1ccc(CNC(=O)[C@H]2CN(c3nc4c(C(=O)OCC)nncc4s3)CCN2S(=O)(=O)c2ccc(CC)cc2)cc1 [Example 891, 2-[(R)-4-(4-ethyl-benzenesulfonyl)-3-(4-propyl-benzylcarbamoyl)-piperazin-1-yl]-thiazolo[4,5-d]pyridazine-4-carboxylic acid ethyl ester]
[1]
  IC50: < 100 nM
[2]
  IC50: < 100 nM

## CCCc1ccc(CNC(=O)[C@H]2CN(c3nc4c(C(=O)O)nncc4s3)CCN2S(=O)(=O)c2ccc(CC)cc2)cc1 [Example 892, 2-[(R)-4-(4-ethyl-benzenesulfonyl)-3-(4-propyl-benzylcarbamoyl)-piperazin-1-yl]-thiazolo[4,5-d]pyridazine-4-carboxylic acid]
[1]
  IC50: < 100 nM
[2]
  IC50: < 100 nM

## Cc1n[nH]c(=O)c2sc(N3CCN(S(=O)(=O)c4ccc(C(F)(F)F)cc4)[C@@H](C(=O)NCc4ccc(OC(F)(F)F)cc4)C3)nc12 [Example 893, (R)-4-(4-methyl-7-oxo-6,7-dihydro-thiazolo[4,5-d]pyridazin-2-yl)-1-(4-trifluoromethyl-benzenesulfonyl)-piperazine-2-carboxylic acid 4-trifluoromethoxy-benzylamide]
[1]
  IC50: < 100 nM
[2]
  IC50: < 100 nM

## CCC(F)(F)c1ccc(CNC(=O)[C@H]2CN(c3nc4ncncc4s3)CCN2S(=O)(=O)c2ccc(OC(F)(F)F)cc2)cc1 [Example 894, (R)-4-thiazolo[4,5-d]pyrimidin-2-yl-1-(4-trifluoromethoxy-benzenesulfonyl)-piperazine-2-carboxylic acid 4-(1,1-difluoro-propyl)-benzylamide]
[1]
  IC50: < 100 nM
[2]
  IC50: < 100 nM

## CCC(F)(F)c1ccc(CNC(=O)[C@H]2CN(c3nc4nc(Cl)ncc4s3)CCN2S(=O)(=O)c2ccc(OC(F)(F)F)cc2)cc1 [Example 895, (R)-4-(5-chloro-thiazolo[4,5-d]pyrimidin-2-yl)-1-(4-trifluoromethoxy-benzenesulfonyl)-piperazine-2-carboxylic acid 4-(1,1-difluoro-propyl)-benzylamide]
[1]
  IC50: < 100 nM
[2]
  IC50: < 100 nM

## O=C(NCc1ccc(OC(F)(F)F)cc1)[C@H]1CN(c2nc3cnnc(Cl)c3s2)CCN1S(=O)(=O)c1ccc(C(F)(F)F)cc1 [Example 896, (R)-4-(7-chloro-thiazolo[4,5-d]pyridazin-2-yl)-1-(4-trifluoromethyl-benzenesulfonyl)-piperazine-2-carboxylic acid 4-trifluoromethoxy-benzylamide]
[1]
  IC50: < 100 nM
[2]
  IC50: < 100 nM

## O=C(NCc1ccc(OC(F)(F)F)cc1)[C@H]1CN(c2nc3cnncc3s2)CCN1S(=O)(=O)c1ccc(C(F)(F)F)cc1 [Example 897, (R)-4-thiazolo[4,5-d]pyridazin-2-yl-1-(4-trifluoromethyl-benzenesulfonyl)-piperazine-2-carboxylic acid 4-trifluoromethoxy-benzylamide]
[1]
  IC50: < 100 nM
[2]
  IC50: < 100 nM
